{"source": "patent US20110098177A1", "about": "“METHODS AND COMPOSITIONS OF PLANT MICRONUTRIENTS” (NOVUS INTERNATIONAL INC., priority 2006, published 2011)", "format_in_all_cases": "in vivo", "key": {"[1]": {"system": "Patriot bell pepper plants", "experiment": "Marketable yield, open-field bell pepper (Examples 7-10)", "settings": "in vivo", "procedure,_shortened": "(§1)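 Open-field Florida trial, spring 2008: transplants at 4-true-leaf stage on drip-irrigated raised beds were foliar-sprayed at 3 and 5 WAT (BIOX-CM at 4 and 5 WAT) at 60 gal/acre with non-ionic surfactant. Most recent mature leaves were sampled at 6 WAT. Tomato fruit was USDA-graded and analysed for minerals.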"}, "Tygress tomato plants [2]": {"system": "Tygress tomato plants", "experiment": "Nutrient concentration of tomato fruits at 10 WAT, open field (Examples 7-10)", "settings": "in vivo", "procedure,_shortened": "as §1"}, "Tygress tomato plants [3]": {"system": "Tygress tomato plants", "experiment": "Marketable yield, open-field tomato (Examples 7-10)", "settings": "in vivo", "procedure,_shortened": "as §1"}, "Tygress tomato plants [4]": {"system": "Tygress tomato plants", "experiment": "Yields of tomato fruits, greenhouse spring 2009 (Examples 13-15)", "settings": "BIOX-Cu at 0.46 and 0.55 lb/acre; Cu-sulfate at 0.8 lb/acre; BIOX-EDC at 0.4 lb/acre", "protocol": "(§2) The following experiments were performed in a green house during the spring of 2009 at GCREC, Balm, University of Florida. Crop set-up, procedures and variables were as follows.\n(§3) Transplants of ‘Tygress’ tomato plants were planted in 2-gallon pots filled with commercial planting medium with nutrient concentration of Fe, Zn, Mn, Cu being negligible and insufficient for crop growth. Irrigation and non-micronutrient fertilizer were provided daily through microsprinklers at recommended rates for tomato production in Florida. No pesticides were used. Treatments were as described in Tables 42, 43, and 44 below. BIOX-Cu was compared to Cu-sulfate, BIOX-EDC, and BIOX-O; and BIOX-Fe was compared to Fe-sulfate and BIOX-EDF. BIOX-MEZ is Ca-HMTBA.\n(§4) Treatments were applied at 6 WAT (weeks after transplanting) using a water volume of 200 mL/plant. Deionized water was used for foliar applications. A non-ionic surfactant was added. Other nutrients were applied as appropriate under non-limiting conditions.\nMarketable fruit were collected three times during the growing season, starting at 10 WAT (4 weeks after the initial treatment). Tomato fruit was graded as marketable and non-marketable. Marketable fruit was sized as extra-large, large, and medium. Non-marketable fruit were harvested and number and weight recorded but not sized.\n(§5) Experimental design was a randomized complete block design with 6 replications. Data were analyzed using a general linear model, and means were separated using an LSD test at the 5% significance level."}, "[5]": {"system": "Patriot bell pepper plants", "experiment": "Foliar nutrient concentration at 6 WAT, open-field bell pepper (Examples 7-10)", "settings": "in vivo", "procedure,_shortened": "as §1"}, "Tygress tomato plants [6]": {"system": "Tygress tomato plants", "experiment": "Foliar nutrient concentration at 7 WAT, greenhouse tomato spring 2009 (Examples 13-15)", "settings": "7 WAT (1 week after treatment)", "protocol": "as §2, §3, §4\nFoliar tissue nutrient analysis was performed at 3 WAT (i.e., 3 weeks before treatment) and 7 WAT (i.e., 1 weeks after treatment) on the non-applied newest leaves. The concentrations of N, P, K, Mg, Ca, B, Zn, Mn, Fe, and Cu in the foliar tissue were determined by a commercial laboratory. There were no significant differences between the foliar nutrient concentrations of any of the treatment groups prior to treatment.\nas §5"}, "Tygress tomato plants [7]": {"system": "Tygress tomato plants", "experiment": "Foliar nutrient concentration at 6 WAT, open-field tomato (Examples 7-10)", "settings": "in vivo", "procedure,_shortened": "as §1"}, "Aristotle bell pepper": {"system": "Aristotle bell pepper", "settings": "in vivo", "procedure,_shortened": "(§6)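 Florida-47 tomato and Aristotle bell pepper transplants in 2-gal pots with low-nutrient medium (pH 5.36), drip-irrigated; products at three rates in deionized water plus non-ionic surfactant sprayed on newly matured leaves at 3 and 7 WAT. Toxicity scored at 4 WAT (0=no damage, 10=death); foliar tissue analysed at 6 WAT; marketable fruit harvested 4 times (tomato).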"}, "Florida-47 tomato": {"system": "Florida-47 tomato", "settings": "in vivo", "procedure,_shortened": "as §6"}, "Tygress tomato plants [8]": {"system": "Tygress tomato plants", "settings": "BIOX-Cu at 0.46 and 0.55 lb/acre; Cu-sulfate at 0.8 lb/acre; BIOX-EDC at 0.4 lb/acre", "protocol": "as §2, §3, §4\nToxicity of the treatments was assessed by rating foliar tissue using a visual scale, where 0=no injury and 10=plant death.\nas §5"}}, "note": "Entries after “also recorded” stand apart in the source; their conditions may differ."}
{"smiles": "O=S(=O)([O-])[O-].[Cu+2]", "note": "[BIOX-INC, copper sulfate]", "values": [{"measurement": "Marketable yield, Bell Pepper", "setting": "[1]", "value": 7.3, "unit": "ton/acre"}, {"measurement": "B concentration of tomato fruits", "setting": "Tygress tomato plants [2]", "value": 21, "unit": "ppm"}, {"measurement": "Ca concentration of tomato fruits", "setting": "Tygress tomato plants [2]", "value": 0.2, "unit": "%"}, {"measurement": "Cu concentration of tomato fruits", "setting": "Tygress tomato plants [2]", "value": 22, "unit": "ppm"}, {"measurement": "Fe concentration of tomato fruits", "setting": "Tygress tomato plants [2]", "value": 85, "unit": "ppm"}, {"measurement": "K concentration of tomato fruits", "setting": "Tygress tomato plants [2]", "value": 8.0, "unit": "%"}, {"measurement": "Mg concentration of tomato fruits", "setting": "Tygress tomato plants [2]", "value": 0.38, "unit": "%"}, {"measurement": "Mn concentration of tomato fruits", "setting": "Tygress tomato plants [2]", "value": 42, "unit": "ppm"}, {"measurement": "N concentration of tomato fruits", "setting": "Tygress tomato plants [2]", "value": 4.4, "unit": "%"}, {"measurement": "P concentration of tomato fruits", "setting": "Tygress tomato plants [2]", "value": 0.68, "unit": "%"}, {"measurement": "Zn concentration of tomato fruits", "setting": "Tygress tomato plants [2]", "value": 332, "unit": "ppm"}, {"measurement": "Marketable yield, Tomato", "setting": "Tygress tomato plants [3]", "value": 17.4, "unit": "a ton/acre"}, {"measurement": "Tomato marketable yield compared to control, statement", "setting": "Tygress tomato plants [3]", "value": "significantly increased tomato marketable yields relative to control; also recorded: significantly higher marketable yield of tomato fruits compared to control"}, {"measurement": "Marketable tomato yields compared to non-treated control, statement", "setting": "Tygress tomato plants [4]", "value": "did not alter marketable yields relative to the non-treated control"}, {"measurement": "Foliar B concentration of bell pepper plants", "setting": "[5]", "value": 39, "unit": "ppm"}, {"measurement": "Foliar Ca concentration of bell pepper plants", "setting": "[5]", "value": 2.0, "unit": "%"}, {"measurement": "Foliar Cu concentration of bell pepper plants", "setting": "[5]", "value": 503, "unit": "a ppm"}, {"measurement": "Foliar Fe concentration of bell pepper plants", "setting": "[5]", "value": 71, "unit": "ppm"}, {"measurement": "Foliar K concentration of bell pepper plants", "setting": "[5]", "value": 5.3, "unit": "%"}, {"measurement": "Foliar Mg concentration of bell pepper plants", "setting": "[5]", "value": 0.60, "unit": "%"}, {"measurement": "Foliar Mn concentration of bell pepper plants", "setting": "[5]", "value": 208, "unit": "ppm"}, {"measurement": "Foliar N concentration of bell pepper plants", "setting": "[5]", "value": 4.7, "unit": "%"}, {"measurement": "Foliar P concentration of bell pepper plants", "setting": "[5]", "value": 0.17, "unit": "%"}, {"measurement": "Foliar Zn concentration of bell pepper plants", "setting": "[5]", "value": 281, "unit": "ppm"}, {"measurement": "Foliar concentration of Cu of bell pepper plants compared to control, statement", "setting": "[5]", "value": "significant increase in the foliar concentration of Cu"}, {"measurement": "Copper concentrations in tomato leaves, statement", "setting": "Tygress tomato plants [6]", "value": "highest leaf copper concentrations"}, {"measurement": "Foliar B concentration of tomato plants", "setting": "Tygress tomato plants [7]", "value": 40, "unit": "ppm"}, {"measurement": "Foliar Ca concentration of tomato plants", "setting": "Tygress tomato plants [7]", "value": 2.0, "unit": "%"}, {"measurement": "Foliar Cu concentration of tomato plants", "setting": "Tygress tomato plants [7]", "value": 503, "unit": "a ppm"}, {"measurement": "Foliar Fe concentration of tomato plants", "setting": "Tygress tomato plants [7]", "value": 71, "unit": "ppm"}, {"measurement": "Foliar K concentration of tomato plants", "setting": "Tygress tomato plants [7]", "value": 5.3, "unit": "%"}, {"measurement": "Foliar Mg concentration of tomato plants", "setting": "Tygress tomato plants [7]", "value": 0.60, "unit": "%"}, {"measurement": "Foliar Mn concentration of tomato plants", "setting": "Tygress tomato plants [7]", "value": 208, "unit": "ppm"}, {"measurement": "Foliar N concentration of tomato plants", "setting": "Tygress tomato plants [7]", "value": 4.7, "unit": "%"}, {"measurement": "Foliar P concentration of tomato plants", "setting": "Tygress tomato plants [7]", "value": 0.17, "unit": "%"}, {"measurement": "Foliar Zn concentration of tomato plants", "setting": "Tygress tomato plants [7]", "value": 281, "unit": "ppm"}, {"measurement": "Foliar concentration of Cu of tomato plants compared to control, statement", "setting": "Tygress tomato plants [7]", "value": "significant increase in the foliar concentration of Cu"}, {"measurement": "Pepper toxicity", "setting": "Aristotle bell pepper", "value": 0}, {"measurement": "Tomato toxicity", "setting": "Florida-47 tomato", "value": 0}, {"measurement": "Toxicity compared to non-treated control plants, statement", "setting": "Tygress tomato plants [8]", "value": "increased levels of toxicity"}]}
